Assay results reported in paper PMC8913295, “Cryo-EM structure of hexameric yeast Lon protease (PIM1) highlights the importance of conserved structural elements” (The Journal of Biological Chemistry, 2022).

T1: PIM1 (yeast Lon protease) (Saccharomyces cerevisiae, UniProt P36775)
T1 construct: 109 kDa; hexamer; residues 529-1133 resolved
T1 sequence (P36775 182-1133): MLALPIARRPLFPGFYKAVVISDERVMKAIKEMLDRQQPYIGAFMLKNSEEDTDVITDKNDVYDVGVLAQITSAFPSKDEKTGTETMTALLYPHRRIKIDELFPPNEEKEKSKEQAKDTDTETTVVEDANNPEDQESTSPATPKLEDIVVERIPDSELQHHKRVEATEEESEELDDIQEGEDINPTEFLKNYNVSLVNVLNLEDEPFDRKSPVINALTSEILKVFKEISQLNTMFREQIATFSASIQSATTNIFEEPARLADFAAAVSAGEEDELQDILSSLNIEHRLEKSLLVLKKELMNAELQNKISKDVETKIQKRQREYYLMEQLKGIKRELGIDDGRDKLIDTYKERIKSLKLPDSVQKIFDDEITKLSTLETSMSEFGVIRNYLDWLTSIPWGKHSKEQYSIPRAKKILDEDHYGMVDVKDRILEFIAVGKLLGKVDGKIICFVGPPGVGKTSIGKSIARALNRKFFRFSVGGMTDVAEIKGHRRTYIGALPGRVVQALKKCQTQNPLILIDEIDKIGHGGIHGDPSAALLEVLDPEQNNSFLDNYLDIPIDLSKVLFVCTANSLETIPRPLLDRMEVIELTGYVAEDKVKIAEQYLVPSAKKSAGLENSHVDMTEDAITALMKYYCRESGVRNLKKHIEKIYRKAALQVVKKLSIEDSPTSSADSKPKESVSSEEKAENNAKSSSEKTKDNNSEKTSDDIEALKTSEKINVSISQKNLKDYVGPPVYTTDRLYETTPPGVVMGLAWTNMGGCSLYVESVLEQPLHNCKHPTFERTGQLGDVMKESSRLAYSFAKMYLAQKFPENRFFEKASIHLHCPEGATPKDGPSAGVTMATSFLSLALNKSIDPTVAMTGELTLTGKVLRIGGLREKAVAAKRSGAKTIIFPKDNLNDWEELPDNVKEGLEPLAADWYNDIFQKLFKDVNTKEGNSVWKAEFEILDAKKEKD


Experiments:
[1] = target: T1, PIM1 (yeast Lon protease); experiment: cryo-EM structure ([…] Å); assay type: binding; conditions: two seam subunits (ADP1-2) without gamma-phosphate density; no ADP added, 1 mM ATPγS in sample
[2] = target: the molecule itself; experiment: cryo-EM structure; WT PIM1 (3 mg/ml) after size-exclusion chromatography, incubated with 1 mM ATPγS on ice for 20 min, plunge-frozen; reconstruction at ~3.2 Å

| Molecule | cryo-EM structure (3.2 Å) [1] | stoichiometry N [2] |
| --- | --- | --- |
| Nc1ncnc2c1ncn2[C@@H]1O[C@H](COP(=O)(O)OP(=O)(O)O)[C@@H](O)[C@H]1O [ADP] | do not contain density for a γ-phosphate and are named ADP1 and ADP2 |  |
| mature WT S. cerevisiae PIM1 lacking the mitochondrial targeting sequence (yeast Lon protease) (enzyme, UniProt P36775 182-1133, looked up, residues 529-1133 modelled in the structure; also called WT PIM1; source: E. coli BL21 (DE3) Codon Plus RIPL, purified (Ni-NTA, Superose 6 SEC)) MLALPIARRPLFPGFYKAVVISDERVMKAIKEMLDRQQPYIGAFMLKNSEEDTDVITDKNDVYDVGVLAQITSAFPSKDEKTGTETMTALLYPHRRIKIDELFPPNEEKEKSKEQAKDTDTETTVVEDANNPEDQESTSPATPKLEDIVVERIPDSELQHHKRVEATEEESEELDDIQEGEDINPTEFLKNYNVSLVNVLNLEDEPFDRKSPVINALTSEILKVFKEISQLNTMFREQIATFSASIQSATTNIFEEPARLADFAAAVSAGEEDELQDILSSLNIEHRLEKSLLVLKKELMNAELQNKISKDVETKIQKRQREYYLMEQLKGIKRELGIDDGRDKLIDTYKERIKSLKLPDSVQKIFDDEITKLSTLETSMSEFGVIRNYLDWLTSIPWGKHSKEQYSIPRAKKILDEDHYGMVDVKDRILEFIAVGKLLGKVDGKIICFVGPPGVGKTSIGKSIARALNRKFFRFSVGGMTDVAEIKGHRRTYIGALPGRVVQALKKCQTQNPLILIDEIDKIGHGGIHGDPSAALLEVLDPEQNNSFLDNYLDIPIDLSKVLFVCTANSLETIPRPLLDRMEVIELTGYVAEDKVKIAEQYLVPSAKKSAGLENSHVDMTEDAITALMKYYCRESGVRNLKKHIEKIYRKAALQVVKKLSIEDSPTSSADSKPKESVSSEEKAENNAKSSSEKTKDNNSEKTSDDIEALKTSEKINVSISQKNLKDYVGPPVYTTDRLYETTPPGVVMGLAWTNMGGCSLYVESVLEQPLHNCKHPTFERTGQLGDVMKESSRLAYSFAKMYLAQKFPENRFFEKASIHLHCPEGATPKDGPSAGVTMATSFLSLALNKSIDPTVAMTGELTLTGKVLRIGGLREKAVAAKRSGAKTIIFPKDNLNDWEELPDNVKEGLEPLAADWYNDIFQKLFKDVNTKEGNSVWKAEFEILDAKKEKD |  | 6 |
